Test results: paper PMC11944884, “Bioactive Secondary Metabolites of Two Chinese Edible Boletes, Phlebopus portentosus and Butyriboletus roseoflavus” (Molecules, 2025)
Where two headings read alike, the source gives them in different places.

How the values were obtained:
[1] = tested on: A/H3N2 and B/Victoria strains; assay: microbe, parasite or virus in culture; format: cell-based; conditions: Influenza A virus, range over compounds 22 and 26 and both strains
[2] = tested on: influenza virus B/Victoria strain; assay: microbe, parasite or virus in culture; format: cell-based
influenza virus A/H3N2 = assay: microbe, parasite or virus in culture; format: cell-based, influenza virus A (H3N2 strain)
[3] = tested on: Hela229, SGC7901, PC-3, BEL7402, and MCF-7/ADR; assay: Cytotoxicity CCK-8 assay, small panel of human cancer cell lines (summary statements); format: cell-based; conditions: Hela229, SGC7901, PC-3, and BEL7402 cells, read-out: IC50s
MCF-7/ADR = assay: Cytotoxicity CCK-8 assay, MCF-7/ADR; format: cell-based; conditions: Homo sapiens, NCI/ADR-RES
SGC7901 = assay: Cytotoxicity CCK-8 assay, SGC7901; format: cell-based; conditions: Homo sapiens, SGC-7901
BEL7402 = assay: Cytotoxicity CCK-8 assay, BEL7402; format: cell-based; conditions: Homo sapiens, Bel-7402
Hela229 = assay: Cytotoxicity CCK-8 assay, Hela229; format: cell-based; conditions: Homo sapiens, HeLa 229
PC-3 = assay: Cytotoxicity CCK-8 assay, PC-3; format: cell-based; conditions: Homo sapiens
SH-SY5Y cells [4] = assay: Neuroprotection against H2O2-induced neurotoxicity (MTT); format: cell-based
SH-SY5Y cells [5] = assay: Neuroprotection against Aβ25−35-induced neurotoxicity (MTT); conditions: Homo sapiens, SH-SY5Y, read-out: Cell viability (% of control group)
Protocol: The cells, obtained from the American Type Culture Collection (ATCC, Manassas, VA, USA) at high passages, maintained at 37 °C in a humidified atmosphere containing 5% CO2. Cells were seeded into 96-well plates at a density of 2 × 10^5 cells/mL in MEM/F12 medium supplemented with 10% (v/v) fetal bovine serum. Experiments were carried out after 24 h of seeding. Test compounds and positive control (epigallocatechin-3-gallate, EGCG; NAC) were made to 10^−2 M stock solutions with DMSO and then diluted to corresponding concentrations with cell culture medium. Cells were incubated with test compounds or EGCG (10 μM, Sigma, St. Louis, MO, USA, purity > 98%)/NAC for 2 h, followed by exposure to 80 μM H2O2 or 10 μM Aβ25−35 for another 24 h without medium replacement. After treatment, 10 μL of MTT (5 mg/mL) was added to each well and incubated at 37 °C for 3 h. The cells were finally lysed with 100% DMSO, and the absorbance of MTT formazan was measured at 490 nm using a microplate reader.

[6] = Influenza A virus, H3N2, MDCK, read-out: CPE inhibition
[7] = Homo sapiens, SH-SY5Y, read-out: Cell viability (% of control group)

`CC(C)[C@@H](C)/C=C/[C@@H](C)[C@H]1CC[C@H]2C3=C(CC[C@]12C)[C@@]1(C)CC[C@H](O)C[C@@]12O[C@H]2[C@H]3O` [Compound 26, (22E,24R)-5α,6α-epoxy-ergosta-8,22-dien-3β,7α-diol] was tested, and the EC50 [1] was 3.6 to 9.6 µM, the EC50 ([2]; MDCK) was 3.6 µM and the IC50 ([2]; MDCK) was 3.6 µM. For the same compound, the inhibition at 0.78 µM ([2]; MDCK, read-out: CPE inhibition) was 6.6%, the inhibition at 1.56 µM ([2]; MDCK, read-out: CPE inhibition) was 15% and the inhibition at 3.13 µM ([2]; MDCK, read-out: CPE inhibition) was 25%. For the same compound, the inhibition at 6.25 µM ([2]; MDCK, read-out: CPE inhibition) was 75%, the inhibition at 12.5 µM ([2]; MDCK, read-out: CPE inhibition) was 75% and the IC50 (influenza virus A/H3N2; Influenza A virus, H3N2, MDCK) was 4 µM. For the same compound, the inhibition at 0.78 µM (influenza virus A/H3N2; [6]) was 3.3%, the inhibition at 1.56 µM (influenza virus A/H3N2; [6]) was 15% and the inhibition at 3.13 µM (influenza virus A/H3N2; [6]) was 27.5%. For the same compound, the inhibition at 6.25 µM (influenza virus A/H3N2; [6]) was 75%, the inhibition at 12.5 µM (influenza virus A/H3N2; [6]) was 82.5% and the EC50 (influenza virus A/H3N2; MDCK) was 4 µM.
For `NC(=O)c1ncn([C@@H]2O[C@H](CO)[C@@H](O)[C@H]2O)n1` [Ribavirin, reference compound], the inhibition at 3.13 µM ([2]; B/Victoria strain, 3.13 μM, MDCK cells, read-out: CPE inhibition) was 0%, the inhibition at 6.25 µM ([2]; B/Victoria strain, 6.25 μM, MDCK cells, read-out: CPE inhibition) was 0% and the inhibition at 12.5 µM ([2]; B/Victoria strain, 12.5 μM, MDCK cells, read-out: CPE inhibition) was 25%. The inhibition at 25 µM ([2]; B/Victoria strain, 25 μM, MDCK cells, read-out: CPE inhibition) was 62.5%, the inhibition at 50 µM ([2]; B/Victoria strain, 50 μM, MDCK cells, read-out: CPE inhibition) was 75% and the inhibition at 100 µM ([2]; B/Victoria strain, 100 μM, MDCK cells, read-out: CPE inhibition) was 100%. It also gave an IC50 ([2]; B/Victoria strain, MDCK cells, Table S5, read-out: IC50) of 20.6 µM, an EC50 ([2]; influenza virus B (Victoria strain), MDCK cells, read-out: EC50) of 20.6 µM and an inhibition at 3.13 µM (influenza virus A/H3N2; Influenza A virus, A/H3N2 strain, 3.13 μM, MDCK cells, read-out: CPE inhibition) of 3.3%. It also gave an inhibition at 6.25 µM (influenza virus A/H3N2; Influenza A virus, A/H3N2 strain, 6.25 μM, MDCK cells, read-out: CPE inhibition) of 0%, an inhibition at 12.5 µM (influenza virus A/H3N2; Influenza A virus, A/H3N2 strain, 12.5 μM, MDCK cells, read-out: CPE inhibition) of 10% and an inhibition at 25 µM (influenza virus A/H3N2; Influenza A virus, A/H3N2 strain, 25 μM, MDCK cells, read-out: CPE inhibition) of 50.5%. For the same compound, the inhibition at 50 µM (influenza virus A/H3N2; Influenza A virus, A/H3N2 strain, 50 μM, MDCK cells, read-out: CPE inhibition) was 75%, the inhibition at 100 µM (influenza virus A/H3N2; Influenza A virus, A/H3N2 strain, 100 μM, MDCK cells, read-out: CPE inhibition) was 100% and the IC50 (influenza virus A/H3N2; Influenza A virus, A/H3N2 strain, MDCK cells, Table S5, read-out: IC50) was 28.3 µM. The EC50 (influenza virus A/H3N2; influenza virus A (H3N2 strain), MDCK cells, read-out: EC50) was 28.3 µM.
`CC(C)[C@@H](C)/C=C/[C@@H](C)[C@H]1CC[C@H]2C3=CC(=O)O[C@@]3(O)CC[C@]12C` [Compound 33, demethylincisterol A3] was tested, and the IC50 [3] was 20 to 30 µM, the IC50 (MCF-7/ADR) was greater than 50 µM and the inhibition at 6.25 µM (MCF-7/ADR; 6.25 μM, 48 h, read-out: Cell proliferation inhibition (%)) was 5.5%. It also gave an inhibition at 12.5 µM (MCF-7/ADR; 12.5 μM, 48 h, read-out: Cell proliferation inhibition (%)) of 5.1%, an inhibition at 25 µM (MCF-7/ADR; 25 μM, 48 h, read-out: Cell proliferation inhibition (%)) of 27.1% and an inhibition at 50 µM (MCF-7/ADR; 50 μM, 48 h, read-out: Cell proliferation inhibition (%)) of 42.6%. For the same compound, the inhibition at 100 µM (MCF-7/ADR; 100 μM, 48 h, read-out: Cell proliferation inhibition (%)) was 81.6%, the IC50 (SGC7901; SGC7901) was 26.7 µM and the inhibition at 6.25 µM (SGC7901; SGC7901, 6.25 μM, 48 h, read-out: Cell proliferation inhibition (%)) was 8.3%. For the same compound, the inhibition at 12.5 µM (SGC7901; SGC7901, 12.5 μM, 48 h, read-out: Cell proliferation inhibition (%)) was 16.7%, the inhibition at 25 µM (SGC7901; SGC7901, 25 μM, 48 h, read-out: Cell proliferation inhibition (%)) was 39.1% and the inhibition at 50 µM (SGC7901; SGC7901, 50 μM, 48 h, read-out: Cell proliferation inhibition (%)) was 93.5%. For the same compound, the inhibition at 100 µM (SGC7901; SGC7901, 100 μM, 48 h, read-out: Cell proliferation inhibition (%)) was 94.7%, the IC50 (BEL7402; BEL7402) was 27.7 µM and the inhibition at 6.25 µM (BEL7402; BEL7402, 6.25 μM, 48 h, read-out: Cell proliferation inhibition (%)) was 10%. For the same compound, the inhibition at 12.5 µM (BEL7402; BEL7402, 12.5 μM, 48 h, read-out: Cell proliferation inhibition (%)) was 15.3%, the inhibition at 25 µM (BEL7402; BEL7402, 25 μM, 48 h, read-out: Cell proliferation inhibition (%)) was 49.4% and the inhibition at 50 µM (BEL7402; BEL7402, 50 μM, 48 h, read-out: Cell proliferation inhibition (%)) was 75.3%. It also gave an inhibition at 100 µM (BEL7402; BEL7402, 100 μM, 48 h, read-out: Cell proliferation inhibition (%)) of 82.8%, an IC50 (Hela229; Hela229) of 24.4 µM and an inhibition at 6.25 µM (Hela229; Hela229, 6.25 μM, 48 h, read-out: Cell proliferation inhibition (%)) of -4.8%. It also gave an inhibition at 12.5 µM (Hela229; Hela229, 12.5 μM, 48 h, read-out: Cell proliferation inhibition (%)) of 5.8%, an inhibition at 25 µM (Hela229; Hela229, 25 μM, 48 h, read-out: Cell proliferation inhibition (%)) of 52.3% and an inhibition at 50 µM (Hela229; Hela229, 50 μM, 48 h, read-out: Cell proliferation inhibition (%)) of 96.2%. The inhibition at 100 µM (Hela229; Hela229, 100 μM, 48 h, read-out: Cell proliferation inhibition (%)) was 96.7%, the IC50 (PC-3; PC-3) was 28.4 µM and the inhibition at 6.25 µM (PC-3; PC-3, 6.25 μM, 48 h, read-out: Cell proliferation inhibition (%)) was 12.4%. The inhibition at 12.5 µM (PC-3; PC-3, 12.5 μM, 48 h, read-out: Cell proliferation inhibition (%)) was 21.6%, the inhibition at 25 µM (PC-3; PC-3, 25 μM, 48 h, read-out: Cell proliferation inhibition (%)) was 47.3% and the inhibition at 50 µM (PC-3; PC-3, 50 μM, 48 h, read-out: Cell proliferation inhibition (%)) was 67.7%. The inhibition at 100 µM (PC-3; PC-3, 100 μM, 48 h, read-out: Cell proliferation inhibition (%)) was 85.9%.
For `CC(=O)N[C@@H](CS)C(=O)O` [NAC, N-acetylcysteine, reference compound], the “Cell viability (% of control group)” value (SH-SY5Y cells [4]; 500 μM compound, 80 μM H2O2, mean ± SEM) was 81.05%.
In the case of `O=C1O/C(=C(/C(=O)O)c2ccc(O)c(O)c2)C(O)=C1c1ccc(O)c(O)c1` [Compound 19, variegatic acid], the viability at 2.5 µM (SH-SY5Y cells [4]; [7]) is reported as 56.4 ± 1.79%, the viability at 5 µM (SH-SY5Y cells [4]; [7]) is reported as 59.3 ± 2.94% and the viability at 10 µM (SH-SY5Y cells [4]; [7]) is reported as 63.7 ± 2.8%. The viability at 20 µM (SH-SY5Y cells [4]; [7]) was 71.5% and the viability at 40 µM (SH-SY5Y cells [4]; [7]) was 81.9%.
Compound `O=C1O/C(=C(/C(=O)O)c2ccc(O)cc2)C(O)=C1c1ccc(O)c(O)c1` [Compound 18, xerocomic acid] has a viability at 2.5 µM (SH-SY5Y cells [5]) of 78.2 ± 1.53%, a viability at 5 µM (SH-SY5Y cells [5]) of 77.6 ± 1.97% and a viability at 10 µM (SH-SY5Y cells [5]) of 80.3 ± 1.39%. It also gave a viability at 20 µM (SH-SY5Y cells [5]) of 81.2 ± 1.79% and a viability at 40 µM (SH-SY5Y cells [5]) of 90.5%.
